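Each compound was tested at five concentrations against cells in 96-well plates for 48 hours. GI50 = concentration required for 50% inhibition of growth. TGI: total growth inhibition.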
Tests used:
Assay in all cases: NCI tumour cell line growth inhibition, 48 h
[1] = test system: A549 NSCLC
[2] = test system: CAKI-1 renal
[3] = test system: K-562 leukemia
[4] = test system: MDA-MB-435
[5] = test system: TK-10 renal
[6] = test system: MOLT-4 leukemia
[7] = test system: MCF7 breast
[8] = test system: OVCAR-5 ovarian
[9] = test system: RPMI-8226 leukemia
[10] = test system: U251 CNS
[11] = test system: MALME-3M melanoma
[12] = test system: SF-539 CNS
[13] = test system: SF-295 CNS
[14] = test system: SK-OV-3 ovarian
[15] = test system: NCI-H460 lung
[16] = test system: OVCAR-8 ovarian
[17] = test system: SK-MEL-28 melanoma
[18] = test system: HOP-92 NSCLC
[19] = test system: UACC-62 melanoma
[20] = test system: SR leukemia
[21] = test system: M14 melanoma
[22] = test system: SK-MEL-5 melanoma
[23] = test system: EKVX NSCLC
[24] = test system: COLO 205 colon
[25] = test system: CCRF-CEM leukemia
[26] = test system: SN12C renal
[27] = test system: DU-145 prostate
[28] = test system: A498 renal
[29] = test system: BT-549 breast
[30] = test system: NCI-H23 lung
[31] = test system: UO-31 renal
[32] = test system: SW-620 colon
[33] = test system: NCI/ADR-RES ovarian
[34] = test system: OVCAR-3 ovarian
[35] = test system: HOP-62 NSCLC
[36] = test system: SF-268 CNS
[37] = test system: SNB-75 CNS
[38] = test system: KM12 colon
[39] = test system: OVCAR-4 ovarian
[40] = test system: HT29 colon
[41] = test system: 786-0 renal
[42] = test system: HL-60(TB) leukemia
[43] = test system: SK-MEL-2 melanoma
[44] = test system: NCI-H522 lung
[45] = test system: HCT-15 colon
[46] = test system: T-47D breast
[47] = test system: ACHN renal
[48] = test system: HS 578T breast
[49] = test system: PC-3 prostate
[50] = test system: LOX IMVI melanoma
[51] = test system: RXF 393 renal
[52] = test system: HCC-2998 colon
[53] = test system: NCI-H226 lung
[54] = test system: UACC-257 melanoma
[55] = test system: MDA-MB-231 breast
[56] = test system: HCT-116 colon
[57] = test system: SNB-19 CNS
[58] = test system: IGROV1 ovarian
[59] = test system: MDA-N

SMILES: O=c1[nH]ccc2nc(N3CCC(O)CC3)nc(Nc3ccc(N4CCOCC4)cc3)c12
- GI50 [1]: 3.9 µM
- TGI [1]: > 100 µM
- GI50 [2]: 367 nM
- TGI [2]: > 100 µM
- GI50 [3]: > 100 µM
- TGI [3]: > 100 µM
- GI50 [4]: 744 nM
- TGI [4]: > 100 µM
- GI50 [5]: > 26.3 µM
- TGI [5]: > 100 µM
- GI50 [6]: > 83.8 µM
- TGI [6]: > 100 µM
- GI50 [7]: 4.45 µM
- TGI [7]: > 100 µM
- GI50 [8]: 3.38 µM
- TGI [8]: > 100 µM
- GI50 [9]: > 100 µM
- TGI [9]: > 100 µM
- GI50 [10]: > 81 µM
- TGI [10]: > 100 µM
- GI50 [11]: 1610 nM
- TGI [11]: > 63 µM
- GI50 [12]: 2850 nM
- TGI [12]: 11.2 µM
- GI50 [13]: > 100 µM
- TGI [13]: > 100 µM
- GI50 [14]: 590 nM
- TGI [14]: > 100 µM
- GI50 [15]: 2380 nM
- TGI [15]: > 100 µM
- GI50 [16]: > 100 µM
- TGI [16]: > 100 µM
- GI50 [17]: > 100 µM
- TGI [17]: > 100 µM
- GI50 [18]: 566 nM
- TGI [18]: 5.02 µM
- GI50 [19]: 20.5 µM
- TGI [19]: > 100 µM
- GI50 [20]: 3.14 µM
- TGI [20]: > 100 µM
- GI50 [21]: 351 nM
- TGI [21]: > 100 µM
- GI50 [22]: 3.69 µM
- TGI [22]: > 50.8 µM
- GI50 [23]: > 38.3 µM
- TGI [23]: > 100 µM
- GI50 [24]: 1710 nM
- TGI [24]: 5.05 µM
- GI50 [25]: 28.3 µM
- TGI [25]: > 100 µM
- GI50 [26]: 2550 nM
- TGI [26]: > 100 µM
- GI50 [27]: 2950 nM
- TGI [27]: > 100 µM
- GI50 [28]: 1490 nM
- TGI [28]: 9.77 µM
- GI50 [29]: 2310 nM
- TGI [29]: > 46.5 µM
- GI50 [30]: 8.71 µM
- TGI [30]: > 100 µM
- GI50 [31]: 374 nM
- TGI [31]: > 100 µM
- GI50 [32]: 1750 nM
- TGI [32]: > 100 µM
- GI50 [33]: > 100 µM
- TGI [33]: > 100 µM
- GI50 [34]: 29.1 µM
- TGI [34]: > 100 µM
- GI50 [35]: 5.32 µM
- TGI [35]: > 100 µM
- GI50 [36]: 5.94 µM
- TGI [36]: > 100 µM
- GI50 [37]: 2390 nM
- TGI [37]: 12.1 µM
- GI50 [38]: 55 nM
- TGI [38]: > 100 µM
- GI50 [39]: > 100 µM
- TGI [39]: > 100 µM
- GI50 [40]: 1060 nM
- TGI [40]: > 100 µM
- GI50 [41]: > 22.6 µM
- TGI [41]: > 100 µM
- GI50 [42]: > 100 µM
- TGI [42]: > 100 µM
- GI50 [43]: 2270 nM
- TGI [43]: > 100 µM
- GI50 [44]: > 100 µM
- TGI [44]: > 100 µM
- GI50 [45]: 1240 nM
- TGI [45]: > 100 µM
- GI50 [46]: > 100 µM
- TGI [46]: > 100 µM
- GI50 [47]: 797 nM
- TGI [47]: > 100 µM
- GI50 [48]: 2010 nM
- TGI [48]: 9.03 µM
- GI50 [49]: > 100 µM
- TGI [49]: > 100 µM
- GI50 [50]: 1380 nM
- TGI [50]: > 100 µM
- GI50 [51]: 1740 nM
- TGI [51]: 7.5 µM
- TGI [52]: > 81.2 µM
- GI50 [53]: > 100 µM
- TGI [53]: > 100 µM
- GI50 [54]: > 100 µM
- TGI [54]: > 100 µM
- GI50 [55]: 7.41 µM
- TGI [55]: > 100 µM
- GI50 [56]: 736 nM
- TGI [56]: > 100 µM
- GI50 [57]: > 78.8 µM
- TGI [57]: > 100 µM
- GI50 [58]: 584 nM
- TGI [58]: > 100 µM

SMILES: CC(=O)N(CN1C(=O)CCC1C(=O)O)c1ccc(C)cc1 (stereo unspecified)
- TGI [1]: > 100 µM
- TGI [2]: > 100 µM
- TGI [3]: > 100 µM
- TGI [4]: > 100 µM
- TGI [5]: > 100 µM
- TGI [6]: > 100 µM
- TGI [7]: > 100 µM
- TGI [8]: > 100 µM
- TGI [9]: > 100 µM
- TGI [10]: > 100 µM
- TGI [11]: > 100 µM
- TGI [12]: > 100 µM
- TGI [13]: > 100 µM
- TGI [14]: > 100 µM
- TGI [15]: > 100 µM
- TGI [16]: > 100 µM
- TGI [17]: > 100 µM
- TGI [18]: > 100 µM
- TGI [19]: > 100 µM
- TGI [21]: > 100 µM
- TGI [22]: > 100 µM
- TGI [23]: > 100 µM
- TGI [24]: > 100 µM
- TGI [25]: > 100 µM
- TGI [26]: > 100 µM
- TGI [27]: > 100 µM
- TGI [28]: > 100 µM
- TGI [30]: > 100 µM
- TGI [31]: > 100 µM
- TGI [32]: > 100 µM
- TGI [33]: > 100 µM
- TGI [34]: > 100 µM
- TGI [35]: > 100 µM
- TGI [36]: > 100 µM
- TGI [37]: > 100 µM
- TGI [38]: > 100 µM
- TGI [39]: > 100 µM
- TGI [40]: > 100 µM
- TGI [41]: > 100 µM
- TGI [42]: > 100 µM
- TGI [43]: > 100 µM
- TGI [44]: > 100 µM
- TGI [45]: > 100 µM
- TGI [46]: > 100 µM
- TGI [47]: > 100 µM
- TGI [48]: > 100 µM
- TGI [49]: > 100 µM
- TGI [50]: > 100 µM
- TGI [52]: > 100 µM
- TGI [53]: > 100 µM
- TGI [54]: > 100 µM
- TGI [55]: > 100 µM
- TGI [56]: > 100 µM
- TGI [57]: > 100 µM
- TGI [59]: > 100 µM
- TGI [58]: > 100 µM

Reference: PubChem BioAssay (NCI)
